Results from patent US10344019B2 (priority 2010, dated 2019).
Like-named read-outs stand apart in the source and are kept apart here.

Columns and labels:
Assay in all cases: microbe, parasite or virus in culture
Format in all cases: cell-based
[1] = tested on: HCV 1a RLuc cells (dicistronic genotype 1a H77 replicon, RLuc reporter); settings: Hepatitis C virus, 72 h, genotype 1a H77 replicon, 72 hours, read-out: 1a
Summary of the method: (§1)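 Replicon cells stably carrying the listed RLuc-encoding dicistronic replicons were seeded and treated with DMSO serial dilutions of compound (10 mM stocks) diluted into culture medium. After 72 h, cells were lysed and Renilla luciferase activity measured. EC50 was derived by non-linear regression.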

[2] = tested on: HCV 1b RLuc cells (dicistronic genotype 1b Con1 replicon, RLuc reporter); settings: Hepatitis C virus, 72 h, read-out: 1b (nM)
Summary of the method: as §1

[3] = tested on: HCV 2a JFH-1 Rluc cells (dicistronic genotype 2a JFH-1 replicon, RLuc reporter); settings: Hepatitis C virus, 72 h, genotype 2a JFH-1 replicon, 72 hours, read-out: 2a JFH
Summary of the method: as §1

[4] = tested on: HCV 3a RLuc cells (NS5A chimeric genotype 1b Con1 replicon with consensus genotype 3a NS5A gene); settings: Hepatitis C virus, genotype 3a NS5A chimeric replicon
Summary of the method: as §1

[5] = tested on: HCV 4a Rluc cells (NS5A chimeric genotype 1b Con1 replicon with genotype 4a NS5A gene); settings: Hepatitis C virus, read-out: 4a
Summary of the method: as §1

Structure (SMILES) | EC50 ([1]; Table 1) [nM] | EC50 [2] [nM] | EC50 ([3]; Table 1) [nM] | EC50 ([4]; read-out: 3a, Table 1) [nM] | EC50 [5] [nM] | EC50 ([1]; Table 2) [nM] | EC50 ([3]; Table 2) [nM] | EC50 ([4]; read-out: 3a, Table 2) [nM]
COC(=O)N[C@H](C(=O)N1CCC[C@H]1c1ncc(-c2cc3c4c(c2)CCc2cc(-c5cnc([C@@H]6CCCN6C(=O)[C@@H](NC(=O)OC)[C@H](C)OC)[nH]5)cc(c2-4)CC3)[nH]1)C(C)C [Example 25] | 0.001 to 0.999 | 0.021 | 0.001 to 0.999 | 0.001 to 0.99 | 0.001 to 0.99 |  |  | 
COC(=O)N[C@H](C(=O)N1CCC[C@H]1c1nc2ccc3cc(-c4ccc5cc(-c6cnc([C@@H]7[C@H]8CC[C@H](C8)N7C(=O)[C@H](NC(=O)OC)c7ccccc7)[nH]6)ccc5c4)ccc3c2[nH]1)C(C)C [Example 39] |  | 0.009 |  |  | 0.001 to 0.99 | 0.001 to 0.999 | 1 to 44 | 1 to 4.99
COC(=O)N[C@H](C(=O)N1CCC[C@H]1c1ncc(-c2ccc3c(c2)C(F)(F)c2cc(-c4ccc5nc([C@@H]6[C@H]7CC[C@H](C7)N6C(=O)[C@H](NC(=O)OC)c6ccccc6)[nH]c5c4)ccc2-3)[nH]1)C(C)C [Example 40] |  | 0.005 |  |  | 0.001 to 0.99 | 0.001 to 0.999 | 0.001 to 0.999 | 1 to 4.99
COC(=O)N[C@H](C(=O)N1[C@@H]2CC[C@@H](C2)[C@H]1c1nc2ccc(-c3ccc4c(c3)C(F)(F)c3cc(-c5cnc([C@@H]6CCCN6C(=O)[C@H](NC(=O)OC)c6ccccc6)[nH]5)ccc3-4)cc2[nH]1)C(C)C [Example 41] |  | 0.005 |  |  | 0.001 to 0.99 | 0.001 to 0.999 | 0.001 to 0.999 | 0.001 to 0.99
COC(=O)N[C@H](C(=O)N1[C@@H]2CC[C@@H](C2)[C@H]1c1ncc(-c2ccc(-c3ccc4cc(-c5cnc([C@@H]6CCCN6C(=O)[C@H](NC(=O)OC)c6ccccc6)[nH]5)ccc4c3)cc2)[nH]1)C(C)C [Example 42] |  | 0.008 |  |  | 0.001 to 0.99 | 0.001 to 0.999 | 0.001 to 0.999 | 1 to 4.99
COC(=O)N[C@H](C(=O)N1CC2(C[C@H]1c1ncc(-c3ccc4cc(-c5ccc(-c6cnc([C@@H]7CCCN7C(=O)[C@H](NC(=O)OC)c7ccccc7)[nH]6)cc5)ccc4c3)[nH]1)OCCO2)C(C)C [Example 43] |  | 0.009 |  |  | 0.001 to 0.99 | 0.001 to 0.999 | 0.001 to 0.999 | 1 to 4.99
COC(=O)N[C@H](C(=O)N1CC2(C[C@H]1c1ncc(-c3ccc4cc(-c5ccc(-c6cnc([C@@H]7CCCN7C(=O)[C@H](NC(=O)OC)c7ccccc7)[nH]6)cc5)ccc4c3)[nH]1)OCCO2)C1CCOCC1 [Example 44] |  | 0.032 |  |  | 0.001 to 0.99 | 0.001 to 0.999 | 0.001 to 0.999 | 1 to 4.99
COC(=O)N[C@H](C(=O)N1CCC[C@H]1c1ncc(-c2ccc3cc(-c4ccc(-c5cnc([C@@H]6CC7(CN6C(=O)[C@H](NC(=O)OC)c6ccccc6)OCCO7)[nH]5)cc4)ccc3c2)[nH]1)C(C)C [Example 45] |  | 0.014 |  |  | 0.001 to 0.99 | 0.001 to 0.999 | 0.001 to 0.999 | 1 to 4.99
COC(=O)N[C@H](C(=O)N1CC2(C[C@@H]1c1nc(-c3ccc4c(c3)C(F)(F)c3cc(-c5ccc6nc([C@@H]7CCCN7C(=O)[C@H](NC(=O)OC)c7ccccc7)[nH]c6c5)ccc3-4)c[nH]1)OCCO2)C(C)C [Example 46] |  | 0.007 |  |  | 0.001 to 0.99 | 0.001 to 0.999 | 0.001 to 0.999 | 1 to 4.99
COC(=O)N[C@H](C(=O)N1CCC[C@H]1c1ncc(-c2ccc3cc(-c4ccc(-c5cnc([C@@H]6CC7(CN6C(=O)[C@H](NC(=O)OC)c6ccccc6)OCCO7)[nH]5)cc4)ccc3c2)[nH]1)C1CCOCC1 [Example 47] |  | 0.037 |  |  | 0.001 to 0.99 | 0.001 to 0.999 | 0.001 to 0.999 | 1 to 4.99
COC(=O)N[C@H](C(=O)N1CCC[C@H]1c1ncc(-c2ccc3cc(-c4ccc(-c5cnc([C@@H]6[C@H]7CC[C@H](C7)N6C(=O)[C@H](NC(=O)OC)c6ccccc6)[nH]5)cc4)ccc3c2)[nH]1)C(C)C [Example 48] |  | 0.007 |  |  | 0.001 to 0.99 | 0.001 to 0.999 | 1 to 44 | 1 to 4.99
